Results published in publication PMC3135787 (Antiviral research, 2011).
Where “and” joins values, the source holds several entries; their conditions need not be identical. Identical values can stand only once. Like-named read-outs stand apart in the source and are kept apart here.

Legend:
[1] = test system: genotype 1a H77 subgenomic replicon; test: HCV replicon assay, genotype 1a H77; assay type: cell-based; details: GT1a_H77 replicon, four days
[2] = test system: genotype 1b replicon (Con1 strain); test: HCV replicon assay, genotype 1b Con1; assay type: cell-based; details: GT1b_Con1 replicon, four days
[3] = test system: genotype 2a J6/JFH-1 subgenomic replicon; test: HCV replicon assay, genotype 2a J6/JFH-1; assay type: cell-based; details: GT2a_JFH-1 replicon, four days
[4] = test system: HCV 1a H77Sv2 infectious virus; test: Infectious virus assay, genotype 1a; assay type: cell-based; details: GT1a_H77 infectious virus, En5-3 cells, three days
[5] = test system: HCV 2a JFH-1 infectious virus; test: Infectious virus assay, genotype 2a; assay type: cell-based; details: GT2a_JFH-1 infectious virus, En5-3 cells, three days
Huh7 cells = test: 8-day MTS cytotoxicity assay, Huh7; assay type: cell-based, human; details: Huh7, eight days, MTS
HepG2 cells [6] = test: 8-day MTS cytotoxicity assay, HepG2; assay type: cell-based, human; details: HepG2, eight days, MTS
BxPC3 cells = test: 8-day MTS cytotoxicity assay, BxPC3; assay type: cell-based, human; details: BxPC3, eight days, MTS
CEM cells [7] = test: 8-day MTS cytotoxicity assay, CEM; assay type: cell-based, human; details: CEM, eight days, MTS
HepG2 cells [8] = test: Mitochondrial COXII DNA and ribosomal DNA by real time PCR, HepG2; assay type: cell-based, human; details: HepG2 cells; for CC90: fourteen days
CEM cells [9] = test: Mitochondrial COXII DNA and ribosomal DNA by real time PCR, CEM; assay type: cell-based, human; details: CEM cells; for CC90: fourteen days
[10] = test system: erythroid progenitor cells (CFU-E and BFU-E); test: Human bone marrow stem cell toxicity, 14-day colony formation, erythroid; assay type: cell-based; details: read-out: IC50, erythroid progenitor cells (CFU-E and BFU-E); 14-day colony formation assay
[11] = test system: myeloid progenitor cells (CFU-GM); test: Human bone marrow stem cell toxicity, 14-day colony formation, myeloid; assay type: cell-based; details: read-out: IC50, myeloid progenitor cells (CFU-GM); 14-day colony formation assay
[12] = test system: genotype 1b ET replicon, wild type; assay type: cell-based, HCV; details: read-out: EC90 WT replicon
[13] = test system: ET replicon with NS5B S96T/N142T; test: microbe, parasite or virus in culture; assay type: cell-based, HCV
[14] = test system: Clone A wild type replicon; test: Cross resistance: Clone A wild type replicon, RT-PCR; assay type: cell-based, HCV; details: read-out: EC90 WT replicon; Clone A wild type replicon, RT-PCR assay
[15] = test system: Clone A replicon with NS5B S282T; test: microbe, parasite or virus in culture; assay type: cell-based, HCV
[16] = test system: ET replicon with NS5B C316Y; test: microbe, parasite or virus in culture; assay type: cell-based, HCV
[17] = test system: ET replicon with NS5B M414T; test: microbe, parasite or virus in culture; assay type: cell-based, HCV
[18] = test system: ET replicon with NS5B M423T; assay type: cell-based, HCV
[19] = test system: ET replicon with NS5B P495L; test: microbe, parasite or virus in culture; assay type: cell-based, HCV
ET-Lunet replicon cells = test: HCV replicon clearance and rebound study; assay type: cell-based; details: for clearance of replicon RNA (colony formation after 14 days G418 without compound): 14 days treatment
[20] = test system: primary human hepatocytes; test: Metabolism of [3H]-PSI-353661 in primary human hepatocytes; assay type: in vitro ADME; details: 5 μM [3H]-PSI-353661, up to 24 hours
[21] = target: human cathepsin A (Cat A) (Homo sapiens, UniProt P10619); test: Hydrolysis of the carboxyl ester by cathepsin A; assay type: biochemical; details: CatA, 100 μM substrate, 37 °C
[22] = target: human carboxylesterase 1 (CES-1) (Homo sapiens, UniProt P23141); test: Hydrolysis of the carboxyl ester by carboxylesterase 1; assay type: biochemical
recombinant human ADAL1 = target: T1, recombinant human ADAL1 (Homo sapiens, UniProt Q6DHV7); test: ADAL1-mediated demethylation assay; assay type: biochemical; details: ADAL1, pH 6.7, 37°C
T1 sequence (Q6DHV7 1-355): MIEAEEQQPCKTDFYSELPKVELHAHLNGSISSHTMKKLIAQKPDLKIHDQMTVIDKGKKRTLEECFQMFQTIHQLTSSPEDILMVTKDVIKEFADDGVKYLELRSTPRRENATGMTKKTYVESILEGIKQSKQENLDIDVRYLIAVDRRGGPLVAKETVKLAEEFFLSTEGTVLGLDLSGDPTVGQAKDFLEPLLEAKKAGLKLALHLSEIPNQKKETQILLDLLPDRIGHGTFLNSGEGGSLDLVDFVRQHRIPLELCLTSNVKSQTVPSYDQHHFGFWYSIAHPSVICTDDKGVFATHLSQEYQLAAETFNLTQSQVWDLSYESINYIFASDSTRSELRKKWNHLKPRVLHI

CEM cells [23] = test: Lactic acid production, CEM; details: 7 days, normalised to rDNA
HepG2 cells [24] = test: Lactic acid production, HepG2; details: 7 days, normalised to rDNA

Sequence of human carboxylesterase 1 (CES-1) (P23141 18-567): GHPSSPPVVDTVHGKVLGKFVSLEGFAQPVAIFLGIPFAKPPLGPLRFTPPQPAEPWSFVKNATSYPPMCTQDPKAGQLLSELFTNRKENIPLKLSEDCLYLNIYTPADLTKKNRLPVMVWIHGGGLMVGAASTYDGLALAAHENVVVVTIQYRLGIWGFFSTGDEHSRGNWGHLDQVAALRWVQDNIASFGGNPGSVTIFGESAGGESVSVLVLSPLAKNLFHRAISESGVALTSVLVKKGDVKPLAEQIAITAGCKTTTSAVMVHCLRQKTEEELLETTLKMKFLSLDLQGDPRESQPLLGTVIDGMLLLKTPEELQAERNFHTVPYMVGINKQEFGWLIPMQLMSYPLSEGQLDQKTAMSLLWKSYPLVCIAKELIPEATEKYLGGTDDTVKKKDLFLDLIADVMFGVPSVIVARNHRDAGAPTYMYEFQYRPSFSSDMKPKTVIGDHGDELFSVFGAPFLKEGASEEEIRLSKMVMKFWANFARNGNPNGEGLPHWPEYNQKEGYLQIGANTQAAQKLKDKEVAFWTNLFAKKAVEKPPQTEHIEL
Sequence of human cathepsin A (Cat A) (P10619 29-326 limits assumed): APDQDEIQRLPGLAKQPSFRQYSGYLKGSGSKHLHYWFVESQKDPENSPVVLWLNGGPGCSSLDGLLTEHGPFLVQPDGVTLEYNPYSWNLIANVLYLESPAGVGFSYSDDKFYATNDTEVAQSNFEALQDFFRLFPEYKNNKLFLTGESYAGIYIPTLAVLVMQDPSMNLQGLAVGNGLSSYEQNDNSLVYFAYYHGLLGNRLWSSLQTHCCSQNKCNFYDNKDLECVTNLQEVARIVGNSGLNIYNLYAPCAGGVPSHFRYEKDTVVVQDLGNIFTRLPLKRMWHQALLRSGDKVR
Sequence of human cathepsin A (Cat A) (P10619 327-480 limits assumed): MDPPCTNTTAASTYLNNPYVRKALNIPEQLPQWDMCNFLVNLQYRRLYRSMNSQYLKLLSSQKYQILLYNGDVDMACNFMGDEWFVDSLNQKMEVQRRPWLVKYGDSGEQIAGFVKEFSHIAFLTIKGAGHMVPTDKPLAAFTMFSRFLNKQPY

SMILES: COc1nc(N)nc2c1ncn2[C@@H]1O[C@H](COP(=O)(N[C@@H](C)C(=O)OC(C)C)Oc2ccccc2)[C@@H](O)[C@@]1(C)F (stereo partly drawn) [PSI-353661, (S)-2-{(S)-[(1R,4R,5R)-5-(2-amino-6-methoxy-purin-9-yl)-4-(R)-fluoro-3-hydroxy-4-methyl-tetrahydro-furan-2-ylmethoxy]-phenoxy-phosphorylamino}-propionic acid isopropyl ester]
- EC50 [1]: 4.5 ± 0.7 nM
- EC90 [1]: 10.5 ± 0.7 nM
- EC50 [2]: 3 ± 1.4 nM
- EC90 [2]: 8.5 ± 0.7 nM
- EC50 [3]: 6.5 ± 2.1 nM
- EC90 [3]: 14 ± 1.4 nM
- EC50 [4]: 3.5 nM
- EC90 [4]: 8.6 nM
- EC50 [5]: 1.6 nM
- EC90 [5]: 11.2 nM
- CC50 (Huh7 cells): 80000 ± 6000 nM
- CC50 (HepG2 cells [6]): > 100000 nM
- CC50 (BxPC3 cells): > 100000 nM
- CC50 (CEM cells [7]): > 100000 nM
- effect on mitochondrial DNA content (HepG2 cells [8]; up to 100 μM, 14 days): did not affect mitochondrial DNA content
- CC90 (HepG2 cells [8]; read-out: CC90 mtDNA): > 100000 nM
- CC90 (HepG2 cells [8]; read-out: CC90 rDNA): > 100000 nM
- effect on mitochondrial DNA content (CEM cells [9]; up to 100 μM, 14 days): did not affect mitochondrial DNA content
- CC90 (CEM cells [9]; read-out: CC90 mtDNA): > 100000 nM
- CC90 (CEM cells [9]; read-out: CC90 rDNA): > 100000 nM
- IC50 [10]: > 50000 nM
- IC50 [11]: 45000 ± 2000 nM
- EC90 [12]: 12 ± 4 nM
- EC90 fold change [13]: 0.7
- EC90 ([13]; read-out: EC90 Mutant replicon, S96T/N142T, luciferase-based assay): 8.7 ± 3.7 nM
- EC90 [14]: 9 nM and 9.3 nM
- EC90 fold change [15]: 1.5
- EC90 ([15]; read-out: EC90 Mutant replicon, S282T, RT-PCR assay): 14 ± 2.6 nM
- EC90 fold change [16]: 0.8
- EC90 ([16]; read-out: EC90 Mutant replicon, C316Y, luciferase-based assay): 9.8 ± 3.5 nM
- EC90 fold change [17]: 1.0
- EC90 ([17]; read-out: EC90 Mutant replicon, M414T, luciferase-based assay): 12 ± 2.2 nM
- EC90 fold change [18]: 0.8
- EC90 ([18]; read-out: EC90 Mutant replicon, M423T, luciferase-based assay): 9.7 ± 1.9 nM
- EC90 fold change [19]: 1.0
- EC90 ([19]; read-out: EC90 Mutant replicon, P495L, luciferase-based assay): 12 ± 0.34 nM
- reduction of HCV replicon RNA (ET-Lunet replicon cells; 8 nM (2× EC50), end of first 14-days, no G418): 1 log
- decrease in HCV replicon RNA (ET-Lunet replicon cells; 20 nM dose, end of first 14-days, no G418): > 4 log
- clearance of replicon RNA (colony formation after 14 days G418 without compound) (ET-Lunet replicon cells; 20 nM): partial clearance
- HCV RNA level (ET-Lunet replicon cells; 40 and 80 nM doses, by day 10): undetectable
- clearance of replicon RNA (colony formation after 14 days G418 without compound) (ET-Lunet replicon cells; 40 and 80 nM): completely eliminated the replicon
- EC50 (ET-Lunet replicon cells; read-out: EC50 value, ET-Lunet replicon cells, value used to set clearance doses): 4 nM
- intracellular level of parent compound [20]: undetectable
- specific activity of hydrolysis to PSI-353131 [21]: 0.80 µmol/min/mg
- rate of hydrolysis (specific activity) ([22]; CES1, 100 μM substrate, 37 °C, not time-dependent): ~0.034 µmol/min/mg
- fraction converted to product PSI-353131 ([22]; incubation with CES1): ~10%
- Km (recombinant human ADAL1): No activity
- kcat (recombinant human ADAL1): No activity
- kcat / Km (recombinant human ADAL1): No activity
- Lactic acid (Fold change from untreated cells) (CEM cells [23]; 0.1 μM): 1.4 ± 0.36
- Lactic acid (Fold change from untreated cells) (CEM cells [23]; 1.0 μM): 1.4 ± 0.10
- Lactic acid (Fold change from untreated cells) (CEM cells [23]; 10 μM): 1.4 ± 0.31
- Lactic acid (Fold change from untreated cells) (CEM cells [23]; 50 μM): 1.3 ± 0.40
- Lactic acid (Fold change from untreated cells) (HepG2 cells [24]; 0.1 μM): 1.2 ± 0.35
- Lactic acid (Fold change from untreated cells) (HepG2 cells [24]; 1.0 μM): 1.2 ± 0.29
- Lactic acid (Fold change from untreated cells) (HepG2 cells [24]; 10 μM): 1.1 ± 0.06
- Lactic acid (Fold change from untreated cells) (HepG2 cells [24]; 50 μM): 1.3 ± 0.31
